Data set [1] deals with mongrel rats, AIA model. Kind of data set: Adjuvant-induced arthritis in rats. In kind it is in vivo. The following applies: for Animal death / The increase in the volume of the paws relative to the initial level: Diclofenac 8 mg/kg QD intragastric. The protocol: Rat adjuvant-induced arthritis (AIA) model was performed at Pharmenterprises, Russia as described previously^3 and approved by Ethics Committee of Pharmenterprises. Male 10 week old mongrel rats were divided into eleven groups: negative control (#1), positive control (#2) and nine treatment groups (#3–11), ten […] in each group. Group #1 was left intact, while subplantar injection of 0.1 mL of Complete Freund’s adjuvant (CFA, Sigma) was made on day 0 at right paws of rats in groups […]. […] Disease progression was monitored by measuring volumes of the right (involved) and left (non-involved) paws on days 0, 14, 18, 21, 25, and 28.

Data set [2] has as its system Sprague-Dowley rats, medial meniscal tear (MMT) model. The data set is described as follows: Surgically induced meniscal tear OA in rats. The settings on record: 0.1 mg/kg subcutaneously once every three days, day 21. It counts as in vivo, rat. On the procedure: Medial meniscal tear (MMT) model was performed at Pharmenterprises, Russia according to the published procedure[31] and approved by Ethics Committee of Pharmenterprises. Male 4-month old Sprague-Dowley rats were anesthetized with Zoletil (Vibrac, France) and Xylazine (Interchemie werken "De Adelaar" BV, Netherlands) mixture. The medial collateral ligament was transected, and the medial meniscus was grasped with a hemostat and reflected proximally toward the femur. The meniscus was transected and then skin was closed with sutures. 60–90 min after surgery rats were subcutaneously injected with flexoprofen (VIC GROUP, Russia). Treatment groups (20 rats each) were intragastrically treated with MT-SYK-03 (100 and 500 mg/kg) or vehicle control (0.5% methylcellulose solution) 24 h before OA induction and then once daily for 21 day. Active control group was subcutaneously injected with zoledronic acid (0.1 mg/kg) 24 h before OA induction and then once every three days for 21 day. After 21 day animals were sacrificed; surgically operated right knee was removed and used for image analysis.

For data set [3], the system named is Wistar rats, MIA osteoarthritis model. Kind of data set: Monosodium iodoacetate induced osteoarthritis in rats. It counts as in vivo, rat. The protocol:
Monosodium iodoacetate (MIA) osteoarthritis model was performed at Pharmenterprises, Russia according to the known procedure[32] and approved by Ethics Committee of Pharmenterprises. Male 10 week old Wistar rats were divided into eight groups: negative control (#1), positive control (#2) and six treatment groups (#3–8), ten rats in each group. Group #1 was left intact while rats in groups #2–8 were anesthetized on the day 0 with intraperitoneal injection of Zoletil and Xylazine mixture and given a single intra-articular injection of MIA through the infrapatellar ligament of the right knee. Rats were treated as follows: (#1, #2) 0.5% solution of methylcellulose in PBS (pH = 3) as vehicle control, (#3, #5) 100 mg/kg MT-SYK-03, (#4, #6) 500 mg/kg MT-SYK-03, (#7) 50 mg/kg nalgesin and (#8) 0.1 mg/kg zoledronic acid. Rats in groups #1–4 received treatment intragastrically QD, 25 and 1 h before the MIA injection, and then daily until the end of the study on the day 28. Rats in groups #5–6 received treatment intragastrically QD from the day 7 until the end of the study. Rats in group #7 were treated QD starting on the day 14 and until the end of the study. Finally, rats in group #8 were treated subcutaneously immediately after the MIA injection and then every third day until the study end. Disease progression was monitored by measuring mechanical hyperalgesia, mechanical allodynia and grip strength of hind paws on the days 14, 21, and 28, just before the treatment, and 1, 3, 6 h after it.

The mark [4] stands for this setting: Zoledronic acid 0.1 mg/kg, 0–28 days once three days, 14 day, 1 hour after admin.
The mark [5] stands for this setting: Zoledronic acid 0.1 mg/kg, 0–28 days once three days, 14 day, 3 hours after admin.
Where [6] appears, read: Zoledronic acid 0.1 mg/kg, 0–28 days once three days, 21 day, 1 hour after admin.
Where [7] appears, read: Zoledronic acid 0.1 mg/kg, 0–28 days once three days, 21 day, 3 hours after admin.
The mark [8] stands for this setting: Zoledronic acid 0.1 mg/kg, 0–28 days once three days, 28 day, 1 hour after admin.
Where [9] appears, read: Zoledronic acid 0.1 mg/kg, 0–28 days once three days, 28 day, 3 hours after admin.

Take `O=C(O)Cc1ccccc1Nc1c(Cl)cccc1Cl` [diclofenac, reference compound]: the Animal death in data set [1] (14 days) is on record as 0%; in data set [1] (18 days), 0%; in data set [1] (21 days) it was 10%; in data set [1] (25 days), 20%; in data set [1] (28 days) it was 20%. The “The increase in the volume of the paws relative to the initial level” value in data set [1] (non-involved paws, 14 days) was 14.28±0.98& %; in data set [1] (non-involved paws, 18 days), 22.01±2.42& %; in data set [1] (non-involved paws, 21 days), 22.85±2.82& %; in data set [1] (non-involved paws, 25 days) it was 19.99±2.76& %; in data set [1] (non-involved paws, 28 days), 20.8±3.06& %; in data set [1] (treated paws, 14 days), 85.1 ± 8.01 & n = 10%. The “The increase in the volume of the paws relative to the initial level” value is recorded as 90.16 ± 9.34 & n = 10% in data set [1] (treated paws, 18 days); 89.64 ± 9.99 & n = 9% in data set [1] (treated paws, 21 days); 88.04 ± 12.52 &. n = 8% in data set [1] (treated paws, 25 days); 92.37 ± 13.78 & n=8% in data set [1] (treated paws, 28 days). Moreover, the “Volume of non-involved paws” value in data set [1] (rat AIA, diclofenac, day 28) was “no statistically significant effect”. The Rats died in data set [1] (rat AIA, sodium diclofenac) is 20%.

For `O=P(O)(O)C(O)(Cn1ccnc1)P(=O)(O)O` [zoledronic acid, reference compound], the Lesion area in data set [2] is reported as 25.3 ± 2.2^& %. Moreover, in data set [2], the Lesion depth amounted to 50.5 ± 7.1%. For the same molecule, the “hind paws grip strength” value in data set [3] (setting [4]) is 60.4 ± 10.4 & % from the initial one; in data set [3] (setting [5]), 75.4 ± 7.7 & % from the initial one; in data set [3] (setting [6]), 96 ± 6.8 % from the initial one; in data set [3] (setting [7]) it was 84.3 ± 7.5 % from the initial one; in data set [3] (setting [8]), 92.8 ± 7.6 % from the initial one; in data set [3] (setting [9]), 93.9 ± 15.5 % from the initial one. Also, in data set [3] (rat MIA, days 14, 21, 28), the “hind paws grip strength” value is given as “stable statistically significant improvements, but only on day 28”. The “mechanical allodynia pain threshold” value was 100.6±8 & % from the initial one in data set [3] (setting [4]); 101.3±12.3 & % from the initial one in data set [3] (setting [5]); 108.2±7.9 & % from the initial one in data set [3] (setting [6]); 106.8±6.5 & % from the initial one in data set [3] (setting [7]); 112.4±8.6 & % from the initial one in data set [3] (setting [8]); 126.6±15.4 & % from the initial one in data set [3] (setting [9]). For the same molecule, the “mechanical allodynia pain threshold” value in data set [3] (rat MIA, reference drugs) is “increased the pain threshold”. In addition, the mechanical hyperalgesia is reported as 68.1 ± 6.3 & % from the initial one in data set [3] (setting [4]); 68.3 ± 3.5 & % from the initial one in data set [3] (setting [5]); 85.6 ± 5.6 % from the initial one in data set [3] (setting [6]); 83.4 ± 5.2 % from the initial one in data set [3] (setting [7]); 81.8 ± 3.7 & % from the initial one in data set [3] (setting [8]); 84.2 ± 7.4 % from the initial one in data set [3] (setting [9]). Further, in data set [3] (rat MIA, reference drugs), the “Mechanical hyperalgesia pain threshold” value is “positive effects, but they were statistically significant only on days 21 and 28”.

These data come from PMC8632988, “Inhibition of SYK and cSrc kinases can protect bone and cartilage in preclinical models of osteoarthritis and rheumatoid arthritis” (Scientific Reports, 2021).
